Laboratory results as given in article PMC10447463, “Data-mining unveils structure–property–activity correlation of viral infectivity enhancing self-assembling peptides” (Nature Communications, 2023).
Read-outs that look alike come from different tables or passages of the source.

Experiments:
[1] = Zeta-potential measurement; type: physicochemical
Outline: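 Zeta potentials of aggregated peptides come from electrophoretic mobility (Smoluchowski model) in 1 mM KCl after a 1 d RT incubation at 1 mg/mL in PBS, pH 7.4.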

[2] = Turbidity, derived count rate of scattered light; type: physicochemical; conditions: for Count Rate: derived count rate of scattered light (turbidity); for Log10 Count Rate: turbidity, derived count rate of scattered light, data of Figure 2D
[3] = tested on: HIV-1 infection of TZM-bl cells; assay: HIV-1 infectivity enhancement assay, β-galactosidase luminescence; type: cell-based; conditions: for Rel-EFC: infection relative to EF-C (QCKIKQIINMWQ = 1); for Log10 Infection Rel EFC: log10 of infection relative to EF-C; for Log Infectivity: Log10 infection relative to EF-C, TZM-bl cells, asymmetric std dev errors; for Log10 Infection Rel EF-C: HIV-1 infection of TZM-bl cells; for Log10 of Rel to EFC (Feb2021): Log10 of infection relative to EF-C, all peptides of FigS16; for Abs. Inf.: absolute infection signal, HIV-1 on TZM-bl cells, β-galactosidase luminescence; for Log10 Inf. rel. to EF-C: log10 of HIV-1 infection of TZM-bl cells relative to EF-C (EF-C = 0)
[4] = type: physicochemical; set-up: key to Fibril / Fibril Formation / TEM 2cat / Fibril: 1 = fibrils present; 0 non-fibrillar structures; conditions: for Fibril / Fibril Formation: 1 mg/mL, uranyl acetate stain, qualitative
[5] = zeta potential of peptide assemblies
[6] = zeta-potential of peptide, source data of Figure 2C
[7] = zeta-potential of the peptide assemblies, mean, Figure 3A source data
[8] = Fig. S7 panel A (plotted against β-sheet content)
[9] = Log10 of infection rate relative to EF-C, Figure 3A source data
[10] = infection rate relative to EF-C, log10, data of Figure 2D
[11] = infection rate relative to EF-C, log10, source data of Figure 2C
[12] = TEM, 1 = fibrils present, 0 = non-fibrillar
[13] = TEM, 1 = fibrils present, 0 = non-fibrillar structures
[14] = category: fibrils present or non-fibrillar
[15] = Fig. S7 panel B (plotted against CR), rounded to two decimals
[16] = FigS12 panel A, fibril category by TEM

Row | Substance | Zeta-Potential / mV [1, 6] [mV] | Zeta-Potential / mV [1, 7] [mV] | Count Rate [2] | Log10 Count Rate [2] | Rel-EFC ([3]; 1.3 µM peptide) | Log10 Infection Rel EFC ([3]; 1.3 µM peptide) | Log Infectivity [3, 8] | Log10 Infection Rel EF-C [3, 9] | Log10 Infection Rel EF-C [3, 10] | Log10 Infection Rel EF-C [3, 11] | Log10 of Rel to EFC (Feb2021) [3] | TEM 2cat ([4]; Fig S10 panel D) | Fibril / Fibril Formation ([4]; TEM) | Fibril [4, 12] | Fibril [4, 13] | TEM 2cat [4, 14] | Zeta-Pot. [1] | Log Infectivity [3, 15] | Abs. Inf. [3] | Log10 Inf. rel. to EF-C [3] | other results
1 | CKFKFQFNMW | 17.67 | 18.4 | 4107 | 3.613 | 0,96 | -0,02 | -0.01766 | -0.02 | -0.01766 | -0.01766 | -0.02 | 1 | 1 | 1 | 1 | 1 |  |  |  |  | Zeta-Pot. [1, 5]: 18.4
2 | CKFKFQFNMWQ | 15.58 | 17.03 | 142.5 | 2.154 | 1,16 | 0,06 | 0.06446 | 0.06 | 0.06446 | 0.06446 | 0.06 | 1 | 1 | 1 | 1 | 1 | 17.03 | 0.06 | 26320 | 0.06446 | Fibril ([4]; Fig S10 panel E): 1
3 | CKFQC | -5.253 | -17.38 | 130.4 | 2.115 | 0,02 | -1,64 | -1.643 | -1.64 | -1.643 | -1.643 |  | 0 | 0 | 0 | 0 |  | -17.38 | -1.64 | 496.7 | -1.643 | Fibril ([4]; Fig S10 panel E): 0; TEM 2cat [4, 16]: 0; Fibril ([4]; FigS12 panel B, TEM): 0
4 | CKIKIQIII | 16.2 | 16.2 | 4953 | 3.695 | 0,98 | -0,01 | -0.01045 | -0.01 | -0.01045 | -0.01045 | -0.01 | 1 | 1 | 1 | 1 | 1 | 16.2 |  | 22150 | -0.01045 | n-fold Infection, 1.3 µM ([3]; 1.3 µM peptide, n-fold infection): 41 n-fold
5 | CKIKQIINM | 13.87 | 12.9 | 9058 | 3.957 | 0,5 | -0,3 | -0.3035 | -0.3 | -0.3035 | -0.3035 | -0.3 | 1 | 1 | 1 | 1 | 1 | 12.9 | -0.3 | 11280 | -0.3035 | Fibril ([4]; Fig S10 panel E): 1
6 | CKWKWQW | 16.02 | 14.7 | 7511 | 3.876 | 0,25 | -0,6 | -0.5951 | -0.6 | -0.5951 | -0.5951 | -0.6 | 1 | 1 | 1 | 1 | 1 |  |  |  |  | Zeta-Pot. [1, 5]: 14.7
7 | CKYKYQY | 3.282 | 1.49 | 1061 | 3.026 | 0,04 | -1,39 | -1.3903 | -1.39 | -1.3903 | -1.3903 |  | 0 | 0 | 0 | 0 |  |  |  |  |  | Zeta-Pot. [1, 5]: 1.49; TEM 2cat [4, 16]: 0; Fibril ([4]; FigS12 panel B, TEM): 0
8 | CRFRFQF | 6.218 | -2.1 | 390.5 | 2.592 | 0,34 | -0,46 | -0.4635 | -0.46 | -0.4635 | -0.4635 | -0.46 | 1 | 1 | 1 | 1 | 1 | -2.097 | -0.46 | 7508 | -0.4635 | Fibril ([4]; Fig S10 panel E): 1
9 | CRFRVPF | 1.957 | 4.41 | 73.97 | 1.869 | 0,02 | -1,7 | -1.701 | -1.7 | -1.701 | -1.701 |  | 0 | 0 | 0 | 0 |  | 4.413 | -1.7 | 376.7 | -1.701 | Fibril ([4]; Fig S10 panel E): 0; TEM 2cat [4, 16]: 0; Fibril ([4]; FigS12 panel B, TEM): 0
